According to patent publication US8829049B2, “Medicinal composition intended for the treatment of erectile dysfunction in mammals and use of the composition” (ACEF S.A., priority 2009, dated 2014):
“Also recorded” adds a separate entry of the source. Where a name gives a salt, the structure may show the parent alone.

Assays:
[1] = heart rate and adverse signs in the treated mice; assay type: in vivo; conditions: for Heart rate, AVERAGE, after: after administration; for Heart rate, AVERAGE, before: before administration; for adverse signs observed (tachycardia, shaking): intraperitoneal, Group I sildenafil citrate, Group III cubebin
Experimental: (§1) 42 Swiss mice have been used, adults, between 18 and 24 weeks old, weighing between 25 and 35 grams, from the Biotherium of the University of Franca (UNIFRAN), which were confined in plastic cages with metal fences and fed with standard feed (Labina-Purina) and water ad libitum, at room temperature of 22° C.
After a period of adaptation, the animals have been divided into seven groups, as per Table 1 below: […]

[2] = biological target: phosphodiesterase 5 (PDE-5) (Homo sapiens, UniProt O76074); assay: activity test for the enzyme phosphodiesterase 5 (PDE-5); assay type: biochemical; conditions: PDE-5 enzyme activity; read-out: 50% effective dose (DE50)
patients = conditions: cited from earlier work; for interaction with nitrates: combination with nitroglycerin / organic nitrates; for adverse effects: patients
[3] = cited from earlier work
Swiss mice = assay: vasodilating effect / penile erection test in Swiss mice, intraperitoneal administration, with penile histology; assay type: in vivo
Experimental: as §1
After a period of adaptation, the animals have been divided into seven groups, as per Table 1 below:
Animals from all groups have been kept under the same conditions for four hours for later evaluation of the studied pharmacological effect. They were subsequently anesthetized with a solution of 1.5 mg of ketamine plus 0.1 mg of xylazine and then euthanized to take off the penile tissue. Each sample was immediately stocked in 10% formaldehyde to make histological slides.

Row | Compound | Heart rate, AVERAGE, after [1] | Heart rate, AVERAGE, before [1] | adverse signs observed (tachycardia, shaking) [1] | EC50 [2] | interaction with nitrates (patients) | adverse effects (patients) | other results
1 | OC1OC[C@H](Cc2ccc3c(c2)OCO3)[C@H]1Cc1ccc2c(c1)OCO2 (mixture of isomers) [cubebin] | 553.5 | 621.7 | not causing tachycardia or shaking | 16.6 ± 8.2 µM |  |  | 
2 | CN1CC(=O)N2[C@H](c3ccc4c(c3)OCO4)c3[nH]c4ccccc4c3C[C@@H]2C1=O [Tadalafil] |  |  |  |  | modest synergic effects | patients did not have red skin | 
3 | CCCc1nc(C)c2c(=O)[nH]c(-c3cc(S(=O)(=O)N4CCN(CC)CC4)ccc3OCC)nn12 [Vardenafil] |  |  |  |  | minimum changes in heart rate and blood pressure |  | time to maximum plasma concentration ([3]; single doses of 10 or 20 mg): ≤ 0.7 h
4 | O[C@H]1OC[C@H](Cc2ccc3c(c2)OCO3)[C@H]1Cc1ccc2c(c1)OCO2 [cubebin] |  |  |  |  |  |  | ejaculation after treatment (Swiss mice; mice of Group III, FIGS. 4c and 4d): ejaculating after said treatment; penile erection / sexual behaviour observed (Swiss mice; mice, intraperitoneal, Group I sildenafil citrate, Group III 20 mg/kg cubebin): prolonged erection and licked the penis; also recorded: penile erection; histology of corpus cavernosum (Swiss mice; mouse penile tissue, H. E., 400×): void space very dilated and congested
5 | CCCc1nn(C)c2c(=O)[nH]c(-c3cc(S(=O)(=O)N4CCN(C)CC4)ccc3OCC)nc12 [sildenafil citrate] | 627.75 | 628.5 | tachycardia, shaking and testicle tumescence |  |  | cephalea, red skin, dyspepsia, nose congestion and visual disturbances | half life in circulation ([3]; in vivo): four; deaths related to the drug reported (patients; in vivo): More than 500 deaths; rate of deaths (patients; in vivo): fifty
6 | hydroethylic desildenafil citrate |  |  |  | 38.4 ± 1.8 µM |  |  | 
